In assay [1] the test system is bone marrow cells of Paget's disease of bone patients. Put plainly: Osteoclast formation induced by 1α,25-dihydroxyvitamin D3 in bone marrow cultures from Paget's disease of bone patients. The following applies: for osteoclast formation (average number of cells ± S.D.): Paget's marrow. In kind it is cell-based, human. From the text: (§1) Mononuclear cells were fractionated from bone marrow cells of healthy normal persons according to a method of Kurihara et al. (Endocrinology, vol. 126, 2733-2741 (1990)). Briefly, bone marrow cells were obtained from normal persons, a mononuclear cell fraction was collected by Hypaque-Ficoll density gradient centrifugation, the cell fraction was washed with α-Minimal Essential Media (α-MEM) 3 times, and the cells dispersed in α-MEM containing 10% fetal bovine serum. This mononuclear cell suspension was seeded in 100-mm tissue culture plates, the culture plate was kept for 90 minutes at 37° C. in a 4% CO2-air atmosphere, and the non-adherent cells were collected. The non-adherent mononuclear cells were dispersed into α-MEM culture medium containing 20% horse serum at 10^6 cells/ml, the cell suspension was seeded into 96-well multi plates at 100 μl/well.
The capacity of the compound 11 (23S isomer) to inhibit osteoclast formation induced by 1α,25-dihydroxyvitamin D3 was evaluated as follows: Various concentrations of 1α,25-dihydroxyvitamin D3, various concentrations of compound 11 ([…]) solution were added to each well. The culture medium was replaced twice weekly and the cultures continued for 3 weeks at 37° C. in an atmosphere of 4% CO2-air. Osteoclasts that formed were identified by their capacity to bind the 23C6 antibody. The nuclei were counter stained with methyl green. Cells that reacted with the 23C6 antibody and had 3 or more nuclei were scored as osteoclasts.
Bone marrow cells were obtained from involved bones of patients with Paget's disease of bone and processed and cultured as described above for normal bone cells. The cultures were treated in an identical manner with 1α,25-dihydroxyvitamin D3 and/or compound 11 (23S isomer) as described in Example 1.
Bone marrow cultures were performed as described in Example 1, with the exception that different types of vitamin D antagonists were added to at varying concentrations to bone marrow cultures stimulated with 1α,25-dihydroxyvitamin D3. The bone marrow cells were taken from involved bones of patients with Paget's disease of bone and the cultures were performed as described in Example 2. There are two diastereoisomers, based on the asymmetric carbon at the 23 position, in compounds 13 and 16. The isomer having the shorter retention time on reverse phase HPLC analysis was the more polar isomer and the isomer having the longer retention time was the less polar isomer.

Assay [2] relates to bone marrow cells of normal persons. Put plainly: Osteoclast formation induced by 1α,25-dihydroxyvitamin D3 in normal human bone marrow cultures. In kind it is cell-based. The following applies: for osteoclast formation (average number of cells ± S.D.): compound alone, normal marrow, 3 weeks.
Source text: as §1, with “μl/well. The capacity of the compound 11 (23S isomer) to inhibit osteoclast formation induced by 1α,25-dihydroxyvitamin D3 was evaluated as follows: Various concentrations of 1α,25-dihydroxyvitamin D3, various concentrations of compound 11 (23S isomer) or a combination of 10^−8 M 1α,25-dihydroxyvitamin D3 solution and various concentrations of compound 11 (23S isomer) solution were added to each well. The culture medium was replaced twice weekly and the cultures continued for 3 weeks at 37° C. in an atmosphere of 4% CO2-air. Osteoclasts that formed were identified by their capacity to bind the 23C6 antibody. The nuclei were counter stained with methyl green. Cells that reacted with the 23C6 antibody and had 3 or more nuclei were scored as osteoclasts.” for “μl/well.”

For assay [3], the system named is vitamin D deficient rats. As to the kind of experiment: Bone resorption (serum calcium) induced by 1α,25-dihydroxyvitamin D3 in vitamin D deficient rats. In kind it is in vivo, Wistar rats. How it is done:
Four-week-old male Wistar rats purchased from Japan SLC (Shizuoka, in Japan) were used. The animals were kept in wire-net cages (three animals in a cage) and raised for 7 weeks with free access to a vitamin D-deficient diet (Ca, 0.0036%; P, 0.3%; Harlan Taklad Research Diet, Madison, Wis., U.S.A.) and drinking water (well water treated with hypochlorite of […]±0.2 ppm). Temperature was kept at 23±1° C. and the humidity at 55±10%. Five animals were used for each experimental group. The control animals received intravenously administered solvent (5% ethanol-0.1% Triton X-100-physiological saline solution), and the experimental animals were intravenously administered 1α,25-dihydroxyvitamin D3 at a dose of 0.25 μg/kg. For animals receiving vitamin D derivatives, compound 11 (23S isomer) was administered intravenously at a dose of 2 μg/kg, 10 μg/kg or 50 μg/kg, or the compound 11 (23S isomer) with or without 1α,25-dihydroxyvitamin D3 at a dose of 0.25 μg/kg. The volume was 2 ml/kg for each animal. 24 hours after administration, a blood sample was taken out from abdominal descending aorta under ether anesthesia, the serum was collected according to conventional methods, and the calcium concentration in the serum was measured. The calcium concentrations were measured according to OCPC-method (Am. J. Clin. Pathol., vol. 45, 290-296 (1966)) with an autoanalyzer (type 7070, manufactured by Hitachi Seisakusho).

[4] abbreviates: 10^−10 M 1α,25-dihydroxyvitamin D3 + compound 10^−7 M.
Setting [5] is: 10^−10 M 1α,25-dihydroxyvitamin D3 + compound 10^−8 M.
[6] abbreviates: 10^−10 M 1α,25-dihydroxyvitamin D3 + compound 10^−9 M.
[7] abbreviates: compound alone, Paget's marrow cultures.

Take `C=C1CC(CC(C)C2CCC3C(=CC=C4CC(O)CC(O)C4=C)CCCC32C)CC1=O` (single isomer, unassigned; less polar) [compound 13 (less polar isomer)]: the “osteoclast formation (average number of cells ± S.D.)” value turned out to be 14 ± 1 cells in assay [1] (setting [4]); 70 ± 2 cells in assay [1] (setting [5]); 127 ± 4 cells in assay [1] (setting [6]); 1 ± 1 cells in assay [1] (compound alone, 10^−7 M); 6 ± 2 cells in assay [1] (compound alone, 10^−8 M); 7 ± 1 cells in assay [1] (compound alone, 10^−9 M). The “induction of osteoclast formation by the compound alone (in words)” value (shortened to “induction of osteoclast formation”) in assay [1] (Paget's marrow cultures) is listed as “did not induce the osteoclast formation”. In addition, in assay [1] (setting [7]), the “effect on basal osteoclast formation (in words)” value (“effect” for short) is “inhibited basal osteoclast formation”.
In the case of `C=C1CC(CC(C)C2CCC3C(=CC=C4CC(O)CC(O)C4=C)CCCC32C)CC1=O` (single isomer, unassigned; more polar) [compound 13 (more polar isomer)], the “osteoclast formation (average number of cells ± S.D.)” value in assay [1] (setting [4]) is reported as 31 ± 5 cells; in assay [1] (setting [5]), 79 ± 9 cells; in assay [1] (setting [6]), 152 ± 12 cells; in assay [1] (compound alone, 10^−7 M) it was 3 ± 4 cells; in assay [1] (compound alone, 10^−8 M) it was 25 ± 4 cells; in assay [1] (compound alone, 10^−9 M), 44 ± 5 cells. The “induction of osteoclast formation” value in assay [1] (Paget's marrow cultures) is “did not induce the osteoclast formation”. Moreover, the “effect” value in assay [1] (setting [7]) is recorded as “inhibited basal osteoclast formation”.
`C=C1/C(=C\C=C2/CCC[C@]3(C)[C@@H]([C@H](C)CCCC(C)(C)O)CC[C@@H]23)C[C@@H](O)C[C@@H]1O` [1α,25-dihydroxyvitamin D3, reference compound]: the “osteoclast formation at 10^−10 M (in words)” value in assay [2] (10^−10 M, bone marrow cells of normal persons) is listed as “is not induced”; in assay [1] (10^−10 M, bone marrow cells from Paget's disease of bone patients) it was “is induced”. Further, the “osteoclast formation (average number of cells ± S.D.)” value in assay [2] (10^−7 M) is 91 ± 7 cells; in assay [2] (10^−8 M), 87 ± 12 cells; in assay [2] (10^−9 M), 34 ± 6 cells; in assay [2] (10^−10 M), 11 ± 2 cells; in assay [2] (10^−11 M), 13 ± 3 cells; in assay [1] (compound alone, 10^−7 M), 205 ± 6 cells. The “osteoclast formation (average number of cells ± S.D.)” value in assay [1] (compound alone, 10^−8 M) amounted to 206 ± 16 cells; in assay [1] (compound alone, 10^−9 M), 211 ± 25 cells; in assay [1] (compound alone, 10^−10 M), 180 ± 15 cells; in assay [1] (compound alone, 10^−11 M), 134 ± 14 cells. Also, the “concentration at which osteoclast formation was maximal” value in assay [2] (normal marrow cultures) was 10^−8 M. Moreover, the “serum calcium concentration compared to controls (in words)” value in assay [3] (0.25 μg/kg, 24 hours after receiving) was “significant increased serum calcium concentration”. In assay [3] (compound alone, 0.25 μg/kg intravenously, 24 hours after administration), the “serum Ca concentration” value is 5.42 ± 0.12 mg/100 ml serum. Besides, in assay [1] (Paget's marrow cultures), the “lowest concentration inducing osteoclast formation” value is recorded as 10^−11 M.
As to `C=C1CC(CC(C)C2CCC3C(=CC=C4CC(O)CC(O)C4=C)CCCC32C)OC1=O` (stereo not drawn) [compound 11 (23R isomer)], the “osteoclast formation (average number of cells ± S.D.)” value in assay [1] (setting [4]) stood at 18 ± 9 cells; in assay [1] (setting [5]), 70 ± 12 cells; in assay [1] (setting [6]), 145 ± 8 cells; in assay [1] (compound alone, 10^−7 M), 1 ± 1 cells; in assay [1] (compound alone, 10^−8 M), 20 ± 3 cells; in assay [1] (compound alone, 10^−9 M), 32 ± 3 cells. Further, the “induction of osteoclast formation” value in assay [1] (Paget's marrow cultures) is on record as “did not induce the osteoclast formation”. In assay [1] (setting [7]), the “effect” value is listed as “inhibited basal osteoclast formation”.
